Results as given in ChEMBL document CHEMBL3832761, “MMV Pathogen Box Bioactivity Data” (2017).

Assays:
[1] = system: Plasmodium falciparum; assay: Antimalarial activity: Gametocytes Plasmodium falciparum NF54 Gametocytes Stage V IC50 (uM); assay type: functional, organism-based
[2] = system: Plasmodium falciparum; assay: Antimalarial activity: Asexual Blood Stage Plasmodium falciparum Dd2 IC50 (uM); assay type: functional, organism-based
[3] = system: Plasmodium falciparum; assay: Antimalarial activity: Asexual Blood Stage Plasmodium falciparum 3D7 IC50 (uM); assay type: functional, organism-based
[4] = system: Plasmodium berghei; assay: Antimalarial activity: Liver Stage Plasmodium berghei sporozoite Luciferase assay IC50 (uM); assay type: functional, organism-based
[5] = system: Plasmodium falciparum; assay: Antimalarial activity: Asexual Blood Stage Plasmodium falciparum W2 IC50 (uM); assay type: functional, organism-based
[6] = system: HepG2; assay: Cytotoxicity data HepG2 CC20 (uM); assay type: functional
[7] = system: Plasmodium berghei; assay: Antimalarial activity: Liver Stage Plasmodium berghei sporozoite Luciferase assay: inhibition at 10 uM (%); assay type: functional
[8] = system: HepG2; assay: HepG2 CC50 (uM) Cytotoxicity; assay type: functional; settings: Homo sapiens
[9] = system: Plasmodium falciparum; assay: Antimalarial activity: Gametocytes Plasmodium falciparum NF54 Gametocytes Stage V: inhibition at 10 uM (%); assay type: functional
[10] = system: HepG2; assay: HepG2 inhibition at 10 uM (%) Cytotoxicity; assay type: functional; settings: Homo sapiens

Row | SMILES | IC50 [1] | IC50 [2] | IC50 [3] | IC50 [4] | IC50 [5] | CC20 [6] | Inhibition [7] | CC50 [8] | Inhibition [9] | inhibition at 10 µM [10]
1 | CCc1ccc(C(NCc2nc(N)nc(N(C)C)n2)C(C)C)cc1 (stereo not given) | 80 nM | > 2000 nM | > 2000 nM | – | – | – | – | – | – | –
2 | O=C(Nc1ccc(N2CCNCC2)cc1)c1ccn2ncc(-c3cccc(Cl)c3)c2n1 | 620 nM | 1190 nM | 780 nM | > 10000 nM | 1400 nM | 760 nM | 96% | > 10000 nM | 97% | –
3 | O=C(Nc1ccccc1)c1ccc(-c2cc3ccncc3cc2OC2CCNCC2)s1 | 2280 nM | 1240 nM | 570 nM | 7370 nM | 1560 nM | 3650 nM | 100% | > 7500 nM | 96% | –
4 | COc1cccc(CC(=O)N2CCC(n3c(C)nc4ccc(F)cc43)CC2)c1 | 310 nM | 230 nM | 240 nM | – | 250 nM | >80000 nM | 38% | – | 72% | 0%
5 | CN(C)c1cc(NC(=O)Nc2ccccc2)c2ccccc2n1 | 3130 nM | 1100 nM | 600 nM | > 10000 nM | 1230 nM | 6860 nM | 98% | > 10000 nM | 88% | –
6 | COc1cc(-c2cc(-c3ccc(S(C)(=O)=O)cc3)cnc2N)ccc1O | 70 nM | 140 nM | 100 nM | 2520 nM | 100 nM | 1550 nM | 100% | > 10000 nM | 94% | –
7 | O=C(Nc1nc(-c2ccccn2)cs1)C1CC1c1ccccc1F (stereo not given) | 520 nM | > 2000 nM | > 2000 nM | – | – | – | – | – | – | 25%
8 | N#Cc1ccc(-c2cnc(N)c(-c3ccc(C(N)=O)cc3)n2)cc1 | 140 nM | 110 nM | 90 nM | 280 nM | 210 nM | 12000 nM | 100% | > 10000 nM | 87% | –
9 | Nc1nccc2ccc(-c3ccc4nccn4c3)cc12 | 400 nM | 260 nM | 160 nM | – | 370 nM | 5410 nM | 56% | – | 95% | 50%
10 | CCCn1c(NC(=O)c2ccc3ccccc3n2)nc2ccccc21 | 560 nM | > 2000 nM | > 2000 nM | – | – | – | – | – | – | 24%
11 | COc1ccc(-c2cnc3ccc(NCc4ccc(S(N)(=O)=O)cc4)nn23)cn1 | 1030 nM | 810 nM | 490 nM | 6800 nM | 710 nM | 3290 nM | 100% | > 10000 nM | 82% | –
12 | Cc1ccc(NC(=O)c2nc[nH]c2C(=O)Nc2nc3ccccc3[nH]2)c(C)c1 | > 8300 nM | 230 nM | 360 nM | > 10000 nM | 320 nM | 8430 nM | 99% | > 10000 nM | 88% | –
